Assay results reported in patent US12070464B2, “Methods of treating myeloproliferative disorders” (priority 2019, dated 2024).
pEC50, pIC50: −log10 of the molar value. Like-named read-outs stand apart in the source and are kept apart here.

How the values were obtained:
[1] = test system: CD34+ cells isolated from the bone marrow of two healthy donors; assay: Megakaryocyte differentiation and proliferation, alone and with ruxolitinib, 10 days (FACS); assay type: cell-based; conditions: 240 h, 10 days
Excerpt: The cells were then harvested for FACS analysis with live/dead stain and gating with CD34 (progenitor marker) and CD41a and CD42b (mature megakaryocyte markers).

[2] = test system: JAK inhibitor treatment naive myelofibrosis patients; assay type: in vivo, human
Procedure: A Phase 2 study of Compound 1 in subjects with myelofibrosis (MF) was conducted. Three treatment arms were studied:
Arm 3—combination treatment with Compound 1 and Rux in patients (pts) who have not previously been administered a JAK inhibitor, i.e., JAK inhibitor treatment naive. In this arm, key eligibility criteria of included JAKi naive myelofibrosis (MF) patients (pts) with Dynamic International Prognostic Scoring (DIPSS) score int-1 or higher, ECOG performance status ≤2, platelet counts (PLT) ≥100×109/L, peripheral blood blast count <10%, anemia (hemoglobin <10 g/dL), ≥5 cm palpable spleen, ≥2 symptoms measurable (score ≥3) or a total symptom score (c using the MFSAF v4.0. Primary endpoint: spleen volume response (SVR); key secondary endpoints: change in TSS, safety and PK; additional endpoints: changes in proinflammatory cytokine (Ck) levels, BM morphology and mutant allele burden.
The starting dose of Compound 1 was 125 mg given orally, once daily for 2 weeks on/1 week off in a 21-day dosing cycle. Two separate time points for data analysis occurred for at least Arms 1 and 2 and are discussed below: one at approximately 12 weeks of treatment (first assessment of spleen volume by MRI or CT and every 12 weeks thereafter) and another at approximately 24 weeks of treatment (first assessment of bone marrow biopsy and every 24 weeks thereafter). Patients were added to the study following the first time point.
Demographics and results are as follows: Baseline median age: 71 years (52-76), gender: 8 male (72.7%), ECOG ≤1: 10 (90.9%) patients, primary MF: 8 (72.7%) patients, DIPSS score: int-1/int-2/high: 2/7/2 patients, median platelet: 368×109/L (112-951), 9 (81.8%) patients with hemoglobin <10 g/dL, median spleen volume: 1379 cc (580-2807), median TSS: 11.8 (4.1-17), driver mutations: 11 (100%) with ≥1 JAK2/MPL/CALR mutations, HMR (high molecular risk) mutations: 6 […] patients, and ≥3 mutations: 4 (36%) patients. […] See FIG. 9, where * is data post cut off-date.

[3] = test system: IL6 release from the THP-1 acute leukemia cells; assay: IL6 release from LPS-treated THP-1 cells; assay type: cell-based; conditions: Homo sapiens, lipopolysaccharide treatment, then Compound 1 for 16 hours
Procedure: Compound 1 was assessed for its ability to suppress the expression of NF-κB target genes in two experiments. In one experiment, THP-1 acute leukemia cell lines were exposed to lipopolysaccharide treatment and then Compound 1 for 16 hours. […] In the other experiment, the ability of Compound 1 to suppress both IL6 and ILIO expression in TMD8 ABC-DLBCL cells was investigated (data on file). TMD8 cells were incubated with DMSO or 1.6 μM Compound 1 for 6 or 24 hours. RNA was then extracted from the cells and quantified using qRT-PCR.

[4] = test system: CD34+ cells isolated from healthy donor bone marrow; assay: Megakaryocyte differentiation, single agent, 14 days (FACS); assay type: cell-based; conditions: FIG. 2
Procedure: The effects of Compound 1 on megakaryocyte differentiation and proliferation were evaluated using CD34+ cells isolated from healthy donor bone marrow (data on file). The CD34+cells were grown in megakaryocyte differentiation serum-free stem cell differentiation base medium with a megakaryocyte-driving cytokine cocktail for 14 days with DMSO or Compound 1 at concentrations ranging from 3 nM to 500 nM. The cells were then stained for CD34 (progenitor marker), CD45 (leukocyte marker) and CD41a (mature megakaryocyte marker) and assessed by FACS for viability and marker expression. CD41a expression and cell size were used as markers of megakaryocyte differentiation. […] The shift from high to low CD41a expression began at approximately 50 nM, with pronounced effects observed at 200 to 500 nM, as shown in FIG. 2.

[5] = expanded population n=15, at least 12 weeks, FIG. 16

Cc1noc2c1-c1ccccc1C(c1ccc(Cl)cc1)=N[C@H]2CC(N)=O [Compound 1, 2-((4S)-6-(4-chlorophenyl)-1-methyl-4H-benzo[c]isoxazolo[4,5-e]azepin-4-yl)acetamide]
pEC50 ([1]; Donor 1, percent of cells double positive for CD41a and CD42b, read-out: Megakaryocyte differentiation EC50): 7.22
pEC50 ([1]; Donor 1, read-out: Megakaryocyte live count EC50): 7.59
pEC50 ([1]; Donor 1, read-out: Total live count EC50): 7.37
pEC50 ([1]; Donor 1, read-out: Viability EC50): 6.52
pEC50 ([1]; Donor 2, percent of cells double positive for CD41a and CD42b, read-out: Megakaryocyte differentiation EC50): 6.88
pEC50 ([1]; Donor 2, read-out: Megakaryocyte live count EC50): 7.54
pEC50 ([1]; Donor 2, read-out: Total live count EC50): 7.49
pEC50 ([1]; Donor 2, read-out: Viability EC50): < 6.30
pEC50 ([1]; Mean of two donors, read-out: Megakaryocyte differentiation EC50): 7.02
pEC50 ([1]; Mean of two donors, read-out: Megakaryocyte live count EC50): 7.55
pEC50 ([1]; Mean of two donors, read-out: Total live count EC50 (overall cell proliferation)): 7.42
pEC50 ([1]; Mean of two donors, read-out: Viability EC50): 6.40
pEC50 ([1]; in the presence of 250 nM ruxolitinib, extrapolated, below the lowest dose tested, read-out: overall cell proliferation mean EC50 in the presence of ruxolitinib): 7.77
patients achieving ≥50% improvement in TSS ([2]; 4 patients on treatment for ≥12 weeks, with ruxolitinib): 100%
patients achieving ≥35% spleen volume reduction ([2]; 4 patients on treatment for ≥12 weeks, with ruxolitinib, FIG. 9): 100%
patients who had a TSS of ≥10 ([2]; expanded population n=15, FIG. 17): about 71%
patients with overall improvement in PGIC ([2]; expanded population n=15, FIG. 18): About 80%
SVR, average [2, 5]: about −49.7%
patients achieving ≥35% SVR [2, 5]: About 80%
DLTs and grade ≥3 thrombocytopenia ([2]; human, in vivo): no DLTs or grade ≥3 thrombocytopenia
most common TEAE observed in ≥2 patients ([2]; human, in vivo): anemia (1 grade 3), fatigue (all ≤grade 2), and non-cumulative reversible thrombocytopenia (all ≤grade 2)
pIC50 [3]: 7.16
concentration at which shift from high to low CD41a expression began [4]: approximately 50 nM
